{
  "source": "patent US20250302767A1",
  "about": "“TREATMENT OF CANCER AND AUTOIMMUNE DISORDERS USING NANO POLYMERS OF HISTONE DEACETYLASE INHIBITORS” (University of Virginia Patent Foundation, priority 2021, published 2025)",
  "key": {"[1]": {"tested_on": "NKL (Natural killer cell lymphoblastic leukemia/lymphoma)", "assay": "Cell viability assay ([…]-GLO)", "assay_type": "cell-based", "conditions": "Homo sapiens, 60 h, read-out: IC50 in nM at 60 Hours", "source_text": "(§1) Cell lines. The T cell lymphoma cell lines HH and H9 (both Cutaneous T Cell Lymphomas; CTCL), SUP-T1 (T Cell Lymphoblastic Lymphoma) and FEPD and SUP-M2 (ALK-negative anaplastic large cell lymphoma; ALCL), were obtained from ATCC. NKL (Natural killer cell lymphoblastic leukemia/lymphoma) cell lines (Robertson et al., 1996) were also employed. The cutaneous melanoma cell line FM3-29 was obtained from DSMZ. The Large Granular Lymphocyte (LGL) leukemia cell line TL-1 was generated in the Loughran lab. All cells were grown at 37° C. and 5% CO2 in a humidified incubator. Cell lines were authenticated by short tandem repeat DNA profiling (Genetica DNA laboratories) and tested for mycoplasma contamination routinely using the MycoAlert PLUS detection kit (Lonza #LT07-710). Experiments were performed within 6 weeks of thawing. HH, H9, SUP-T1, FEPD and FM3-29 cells were cultured in RPMI-1640 (Corning, Glendale, AZ) with 10% FBS (Thermofisher Scientific, Waltham, MA). SUP-M2 cells were cultured in RPMI-1640 with 20% FBS. TL-1 cells were cultured in RPMI-1640 with 10% FBS and supplemented with 200 U/ml IL-2 (Miltenyi Biotec cat #130-097-743). NKL cells were cultured in RPMI-1640 with 10% FBS and supplemented with 100 U/ml IL-2.\n(§2) Cell Viability Assay. For cell viability, cell lines were plated at the appropriate cell densities (SUP-T1, HH, NKL and TL-1 at 100,000 cells/ml/well and H9, FEPD SUP-M2 and FM3-29 at 50,000 cells/ml/well) in a 48-well plate. […] Cells were harvested after 24, 60, and 96 hours of incubation at 37° C., 5% CO2 and assayed for cell viability, using […]-GLO® (Promega) luminescence reagent, by quantifying the amount of ATP present. After 15 minutes of adding […]-GLO® reagent at a 1:1 ratio, luminescence was read on a GLOMAX® Discover Microplate Reader (Promega). Luminescence was normalized to untreated control, which was defined as 100% viability."}, "SUP-M2 (ALK-ALCL)": {"tested_on": "SUP-M2 (ALK-ALCL)", "assay": "Cell viability assay ([…]-GLO)", "assay_type": "cell-based", "conditions": "Homo sapiens, SUP-M2, 60 h, read-out: IC50 in nM at 60 Hours", "source_text": "as §1, §2"}, "HH (CTCL)": {"tested_on": "HH (CTCL)", "assay": "Cell viability assay ([…]-GLO)", "assay_type": "cell-based", "conditions": "Homo sapiens, 60 h, read-out: IC50 in nM at 60 Hours", "source_text": "as §1, §2"}, "FEPD (ALCL)": {"tested_on": "FEPD (ALCL)", "assay": "Cell viability assay ([…]-GLO)", "assay_type": "cell-based", "conditions": "Homo sapiens, 60 h, read-out: IC50 in nM at 60 Hours", "source_text": "as §1, §2"}, "[2]": {"tested_on": "FM3-29 (cutaneous melanoma)", "assay": "Cell viability assay ([…]-GLO)", "assay_type": "cell-based", "conditions": "Homo sapiens, 60 h, read-out: IC50 in nM at 60 Hours", "source_text": "as §1, §2"}, "H9 (CTCL)": {"tested_on": "H9 (CTCL)", "assay": "Cell viability assay ([…]-GLO)", "assay_type": "cell-based", "conditions": "Homo sapiens, 60 h, read-out: IC50 in nM at 60 Hours", "source_text": "as §1, §2"}, "[3]": {"tested_on": "SUP-T1 (T Cell Lymphoblastic Lymphoma)", "assay": "Cell viability assay ([…]-GLO)", "assay_type": "cell-based", "conditions": "Homo sapiens, SUP-T1, 60 h, read-out: IC50 in nM at 60 Hours", "source_text": "as §1, §2"}, "TL-1 (LGL leukemia)": {"tested_on": "TL-1 (LGL leukemia)", "assay": "Cell viability assay ([…]-GLO)", "assay_type": "cell-based", "conditions": "Homo sapiens, 60 h, read-out: IC50 in nM at 60 Hours", "source_text": "as §1, §2"}, "[4]": {"tested_on": "human CLL, PLL, T cell lymphoma, esophageal and pancreatic cancer and multiple myeloma cells", "conditions": "in vitro; cited from earlier work"}, "[5]": {"tested_on": "cancer cell lines (SUP-T1, FEPD, H9, HH, SUP-M2, NKL, TL-1, FM3-29)", "assay": "Cell viability assay, summary across all cancer cell lines tested", "assay_type": "cell-based, human", "description": "Cell Viability Assay. For cell viability, cell lines were plated at the appropriate cell densities (SUP-T1, HH, NKL and TL-1 at 100,000 cells/ml/well and H9, FEPD SUP-M2 and FM3-29 at 50,000 cells/ml/well) in a 48-well plate. […] Luminescence was normalized to untreated control, which was defined as 100% viability."}, "[6]": {"assay": "Single dose toxicity study (MTD)", "assay_type": "in vivo, mice", "conditions": "female, mouse, in vivo, BALB/c mice", "description": "(§3) In vivo studies. For single dose toxicity study, five to seven-week old female BALB/c mice were chosen for the MTD study. Animals were randomly assigned to dose groups based on body weight. […] Mice were divided into two cohorts for Nano-romidepsin (NanoRomi) and free romidepsin. Each cohort was divided into sub-cohorts. Each sub cohort (n=5) received a single treatment of following doses: 1, 2, 3, 5, and 8 mg/kg body weight by intreaperitoneal (IP) and intravenous (IV) route of administration. NanoRomi was diluted under sterile conditions in phosphate buffered saline (PBS). Romidepsin was prepared in DMSO and then diluted with PBS under sterile condition. […] The mice were monitored for 7 days after the last treatment. For single dose and repeated dose toxicity study, we used two endpoints: weight loss and clinical score. Clinical signs were scored by observing activity, appearance (hair coat and eyes/nose), posture, and body condition with a maximum of 3 points going to each (0, normal; 1 slight deviation from normal; 2, moderate deviation from normal, 3, severe deviation from normal). Euthanasia criteria included weight loss either >20% weight loss or reached a clinical score >6."}, "BALB/c mice [7]": {"tested_on": "BALB/c mice", "assay": "Single dose toxicity study (MTD)", "assay_type": "in vivo", "description": "as §3"}, "BALB/c mice [8]": {"tested_on": "BALB/c mice", "assay": "Repeated dose toxicity study", "assay_type": "in vivo", "source_text": "FIGS. 14A and 14B. […] Depicted are the percentage of body weight changes as a percentage of starting weights with SEM (FIG. 14A; n=5 mice/group) and clinical score with SEM (FIG. 14B; n=5 mice/group).\nas §3"}, "[9]": {"tested_on": "PBMCs from healthy donors", "assay": "Cell viability of normal cells (CELL TITER GLO)", "assay_type": "cell-based, human", "conditions": "for IC50 / pIC50: Homo sapiens, PBMC; for pIC50: 72 hrs (sentence prints 'At 60 hrs' for NanoRomidepsin PDLLA)"}},
  "note": "pIC50: −log10 of the molar value. Like-named read-outs stand apart in the source and are kept apart here.",
  "data": [
    {"smiles": "C/C=C1\\NC(=O)[C@H]2CSSCC/C=C/[C@H](CC(=O)N[C@H](C(C)C)C(=O)N2)OC(=O)[C@H](C(C)C)NC1=O", "note": "[Romidepsin, (1S,4S,7Z,10S,16E,21R)-7-Ethylidene-4,21-diisopropyl-2-oxa-12,13-dithia-5,8,20,23-tetrazabicyclo[8.7.6]tricos-16-ene-3,6,9,19,22-pentone]", "values": [
      {"measurement": "IC50", "setting": "[1]", "result": 0.7, "unit": "nM"},
      {"measurement": "IC50", "setting": "SUP-M2 (ALK-ALCL)", "result": 1.6, "unit": "nM"},
      {"measurement": "IC50", "setting": "HH (CTCL)", "result": 1.3, "unit": "nM"},
      {"measurement": "IC50", "setting": "FEPD (ALCL)", "result": 1.6, "unit": "nM"},
      {"measurement": "IC50", "setting": "[2]", "result": 0.6, "unit": "nM"},
      {"measurement": "IC50", "setting": "H9 (CTCL)", "result": 1.4, "unit": "nM"},
      {"measurement": "IC50", "setting": "[3]", "result": 1.9, "unit": "nM"},
      {"measurement": "IC50", "setting": "TL-1 (LGL leukemia)", "result": 0.7, "unit": "nM"},
      {"measurement": "concentrations at which anti-proliferative and pro-apoptotic activity was seen", "setting": "[4]", "result": "1 to 500", "unit": "nM"},
      {"measurement": "pIC50", "setting": "[5]; Homo sapiens, 60 h, read-out: Avg. IC50 across the cancer cell lines, 60 hours, 8 cancer cell lines, b235 with +/- spread", "result": 8.91},
      {"measurement": "pIC50", "setting": "[5]; Homo sapiens, 60 h, read-out: IC50 range across the cancer cell lines, 60 hours, 8 cancer cell lines", "result": "8.72 to 9.22"},
      {"measurement": "pIC50", "setting": "[5]; read-out: Avg. IC50 across the cancer cell lines, 60 hours, 8 cancer cell lines, b235 with +/- spread", "result": 8.91},
      {"measurement": "MTD", "setting": "[6]; intraperitoneal (IP)", "result": 5, "unit": "mg/kg"},
      {"measurement": "MTD", "setting": "[6]; intravenous (IV), highest dose tested 8 mg/kg", "result": "> 8", "unit": "mg/kg"},
      {"measurement": "clinical score", "setting": "BALB/c mice [7]; after first 7 days of treatment", "result": "equivalent clinical score"},
      {"measurement": "dose at which mice reached humane endpoints", "setting": "BALB/c mice [7]; intraperitoneal (IP)", "result": 8, "unit": "mg/kg"},
      {"measurement": "body weight change", "setting": "BALB/c mice [8]; 3 mg/kg IP on days 1, 4, 8 and 11", "result": "severe body weight loss"},
      {"measurement": "deaths during the experimental period", "setting": "BALB/c mice [8]; 2 and 3 mg/kg IP on days 1, 4, 8 and 11", "result": 1, "unit": "mouse"},
      {"measurement": "times PBMCs from healthy donors more sensitive than the cancer cells", "setting": "[9]; 72 hrs PBMCs vs cancer cells", "result": 1.5, "unit": "×"},
      {"measurement": "IC50", "setting": "[9]; 24 h, read-out: IC50 in nM, PBMC Donor 1, 24 hrs", "result": 0.02, "unit": "nM"},
      {"measurement": "IC50", "setting": "[9]; 24 h, read-out: IC50 in nM, PBMC Donor 2, 24 hrs", "result": "> 50", "unit": "nM"},
      {"measurement": "IC50", "setting": "[9]; 24 h, read-out: IC50 in nM, PBMC Donor 3, 24 hrs", "result": "> 50", "unit": "nM"},
      {"measurement": "IC50", "setting": "[9]; 48 h, read-out: IC50 in nM, PBMC Donor 1, 48 hrs", "result": 0.01, "unit": "nM"},
      {"measurement": "IC50", "setting": "[9]; 48 h, read-out: IC50 in nM, PBMC Donor 2, 48 hrs", "result": 0.01, "unit": "nM"},
      {"measurement": "IC50", "setting": "[9]; 48 h, read-out: IC50 in nM, PBMC Donor 3, 48 hrs", "result": "> 50", "unit": "nM"},
      {"measurement": "IC50", "setting": "[9]; 72 h, read-out: IC50 in nM, PBMC Donor 1, 72 hrs", "result": 0.04, "unit": "nM"},
      {"measurement": "IC50", "setting": "[9]; 72 h, read-out: IC50 in nM, PBMC Donor 2, 72 hrs", "result": 0.07, "unit": "nM"},
      {"measurement": "IC50", "setting": "[9]; 72 h, read-out: IC50 in nM, PBMC Donor 3, 72 hrs", "result": 2.48, "unit": "nM"},
      {"measurement": "pIC50", "setting": "[9]; read-out: Avg. IC50 across the PBMCs from healthy donors, 3 donors", "result": 9.10},
      {"measurement": "pIC50", "setting": "[9]; read-out: IC50 range across the PBMCs from healthy donors, 3 donors", "result": "8.60 to 10.40"}
    ]}
  ]
}
